The text below walks through data of patent publication US20230174497A1, “RHEIN AMIDE DERIVATIVE AND PREPARATION METHOD AND USE THEREOF, AND INHIBITOR OF HEPATOCELLULAR CARCINOMA (HCC) WITH SPECIFIC RECQL4 EXPRESSION” (Shandong First Medical University & Shandong Academy of …, priority 2021, published 2023).

In one data set the test system is HCC cells SNU398. Nature of the data set: CCK-8 cell proliferation assay, SNU398 cells. It is filed as cell-based. Particulars: for IC50: Homo sapiens, SNU-398, SNU398 cells (high RECQL4 expression), 48 h culture, CCK-8, OD 450 nm, Mean ± S.E.M; for IC50 on HCC cells SNU398 compared with IC50 on hepatocytes LO2 (selectivity in words): SNU398 versus LO2, CCK-8, 48 h. As for the experimental part: (§1) The effects of the above-prepared rhein amide derivatives on cell proliferation were detected by a CCK-8 kit.
(§2) The CCK-8 kit can evaluate a proliferation activity of cells by detecting an absorbance at a 450 nm wavelength. SNU398 and LO2 cells were digested to obtain a cell suspension, the cell suspension was diluted with a medium to a density of about 5×10^3 cells/well, 100 µl of cell liquid was added to each well, and a blank group and a negative control group were set up. About 1.0000 mg of the derivative was added in a 0.5 mL EP tube, mixed with dimethyl sulfoxide (DMSO) to prepare a 5×10^-2 M stock solution, and stored at -20° C.
(§3) The stock solutions of 21 compounds prepared in the examples and comparative examples were diluted to final concentrations of 100 µmol/L, 20 µmol/L, 4 µmol/L, 0.8 µmol/L, and 0.16 µmol/L separately using a concentration gradient stepwise dilution method. An original medium in a 96-well plate was discarded by aspiration, 100 µl of the dilutions of the 17 compounds were added to the 96-well plate, and three parallel wells were set up. The dilutions were culture in a cell culture incubator for 48 h. […] A stronger inhibitory ability led to a lower IC50 value, and results were listed in Table 1; statistical analysis and drawing of experimental data was conducted using Graphpad-prism 6.0 software, and a mean ± standard deviation was expressed as (Mean ± S.E.M).
A general note: Tetrazolium dyes change colour on reduction, which living cells bring about.

A further data set concerns hepatocytes LO2. Description: CCK-8 cell proliferation assay, LO2 cells. The settings on record: Hepatocyte, 48 h culture, CCK-8, OD 450 nm, Mean ± S.E.M. The class given is cell-based. As for the experimental part: as §1, §2, §3

Take `COC(=O)C(CC(C)C)NC(=O)c1cc(O)c2c(c1)C(=O)c1cccc(O)c1C2=O` (centres unmarked) [Comparative Example 1, methyl (4,5-dihydroxy-9,10-dioxo-9,10-dihydroanthracene-2-carbonyl)leucine]: the melting point – broadly, the temperature, or range, at which the solid turns liquid – was 175.1 to 176.3 °C. 25.9 ± 6.94 µM corresponded to half-maximal inhibition in the data set with HCC cells SNU398 (IC50). For the same molecule, the IC50 (commonly the point on the concentration scale where inhibition reaches its midpoint) in the data set with hepatocytes LO2 worked out at 0.81 ± 0.16 µM.

In the case of `CCC(C)C(NC(=O)c1cc(O)c2c(c1)C(=O)c1cccc(O)c1C2=O)C(=O)OC` (centres unmarked) [Comparative Example 2, methyl 2-(4,5-dihydroxy-9,10-dioxy-9,10-dihydroanthracene-2-carboxamide)-3-methylvalerate], the melting point was in the range of 179.7 to 182.3 °C. The molecule further yielded an IC50 in the data set with HCC cells SNU398 of 470 ± 84.2 µM. The IC50 in the data set on hepatocytes LO2 turned out to be 80.4 ± 2.36 µM.

With `CCOC(=O)C(CC(C)C)NC(=O)c1cc(O)c2c(c1)C(=O)c1cccc(O)c1C2=O` (centres unmarked) [Comparative Example 3, ethyl(4,5-dihydroxy-9,10-dioxo-9,10-dihydroanthracene-2-carbonyl)leucinate], the melting point fell in the range of 167.9 to 170 °C. Moreover, the IC50 in the data set on HCC cells SNU398 is 188 ± 94.4 µM. This molecule also yielded an IC50 in the data set with hepatocytes LO2 of 57.1 ± 3.25 µM.

Regarding `CCOC(=O)C(NC(=O)c1cc(O)c2c(c1)C(=O)c1cccc(O)c1C2=O)C(C)CC` (centres unmarked) [Comparative Example 4], the melting point lay within 167 to 167.5 °C. Further, in the data set with HCC cells SNU398, the IC50 came to 47.1 ± 11.5 µM. The IC50 in the data set on hepatocytes LO2 was 18.2 ± 1.56 µM.

With `CCOC(=O)C(Cc1ccccc1)NC(=O)c1cc(O)c2c(c1)C(=O)c1cccc(O)c1C2=O` (centres unmarked) [Comparative Example 5, ethyl (4,5-dihydroxy-9,10-dioxy-9,10-dihydroanthracene-2-carbonyl) phenylalaninate], the melting point was in the range of 171 to 172.7 °C. This molecule also came in with a half-inhibitory concentration (IC50) in the data set with HCC cells SNU398 of 166 ± 7.62 µM. This molecule also registered an IC50 in the data set on hepatocytes LO2 of 228 ± 7.25 µM.

Consider `CCOC(=O)C(CCSC)NC(=O)c1cc(O)c2c(c1)C(=O)c1cccc(O)c1C2=O` (centres unmarked) [Comparative Example 6, ethyl(4,5-dihydroxy-9,10-dioxo-9,10-dihydroanthracene-2-carbonyl)methioninate], for which the melting point fell in the range of 177.2 to 178 °C. This molecule registered an IC50 with HCC cells SNU398 of 19.8 ± 1.23 µM. This molecule yielded an IC50 in the data set with hepatocytes LO2 of 7.77 ± 0.45 µM.

Consider `CCOC(=O)C(NC(=O)c1cc(O)c2c(c1)C(=O)c1cccc(O)c1C2=O)C(C)C` (centres unmarked) [Comparative Example 7, ethyl(4,5-dihydroxy-9,10-dioxo-9,10-dihydroanthracene-2-carbonyl)valerate], for which the melting point was 202.1 to 202.7 °C. The same molecule registered an IC50 in the data set on HCC cells SNU398 of 161 ± 4.53 µM. This molecule came in with an IC50 in the data set with hepatocytes LO2 of 13.7 ± 0.89 µM.

`CC(C)CNC(=O)c1cc(O)c2c(c1)C(=O)c1cccc(O)c1C2=O` [Comparative Example 8, 4,5-dihydroxy-N-isobutyl-9,10-dioxy-9,10-dihydroanthracene-2-carboxamide] came in with an IC50 in the data set with hepatocytes LO2 of 118 ± 12.3 µM.

With `COc1ccc(CNC(=O)c2cc(O)c3c(c2)C(=O)c2cccc(O)c2C3=O)cc1` [Comparative Example 9, 4,5-dihydroxy-N-(4-methoxybenzyl)-9,10-dioxy-9,10-dihydroanthracene-2-carboxamide], the melting point was in the range of 244.5 to 249.4 °C. In the data set on HCC cells SNU398, this molecule showed an IC50 of 111 ± 12.5 µM. This molecule also came in with an IC50 in the data set on hepatocytes LO2 of 106 ± 9.72 µM.

Regarding `CC(=O)c1ccc(N2CCN(C(=O)c3cc(O)c4c(c3)C(=O)c3cccc(O)c3C4=O)CC2)cc1` [Comparative Example 10, 3-(4-(4-acetylphenyl)piperazin-1-carbonyl)-1,8-dihydroxyanthracene-9,10-dione], the melting point fell in the range of 270.1 to 272.2 °C. This molecule came in with an IC50 with HCC cells SNU398 of 222 ± 18.7 µM. The IC50 in the data set on hepatocytes LO2 is 104 ± 9.96 µM.

For the molecule `COC(=O)C(C)NC(=O)c1cc(O)c2c(c1)C(=O)c1cccc(O)c1C2=O` (centres unmarked) [Example 1, methyl(4,5-dihydroxy-9,10-dioxy-9,10-dihydroanthracene-2-carbonyl) alaninate], the melting point lay in the range of 236.3 to 237.9 °C. Moreover, in the data set on HCC cells SNU398, 0.46 ± 0.08 µM corresponded to half-maximal inhibition (IC50) and the “IC50 on HCC cells SNU398 compared with IC50 on hepatocytes LO2 (selectivity in words)” value (shortened to “IC50 … (selectivity in words)”) is listed as “much smaller than the IC50 on hepatocytes LO2”. This molecule also displayed a half-inhibitory concentration (IC50) in the data set on hepatocytes LO2 of 5.41 µM.

Take `CCOC(=O)C(CC)NC(=O)c1cc(O)c2c(c1)C(=O)c1cccc(O)c1C2=O` (centres unmarked) [Example 2, ethyl 2-(4,5-dihydroxy-9,10-dioxy-9,10-dihydroanthracene-2-carboxamide)butanoate]: the melting point is 196.7 to 197.2 °C. In addition, in the data set with HCC cells SNU398, the IC50 came to 8.81 ± 0.78 µM and the “IC50 … (selectivity in words)” value is reported as “much smaller than the IC50 on hepatocytes LO2”. For the same molecule, inhibition in the data set with hepatocytes LO2 was half-maximal at 104 ± 9.36 µM (IC50).

`CCOC(=O)CCC(NC(=O)c1cc(O)c2c(c1)C(=O)c1cccc(O)c1C2=O)C(=O)OCC` (centres unmarked) [Example 3, diethyl(4,5-dihydroxy-9,10-dioxo-9,10-dihydroanthracene-2-carbonyl) glutamate]: the melting point fell in the range of 202 to 202.3 °C. The same molecule had an IC50 in the data set with HCC cells SNU398 of 66.8 ± 2.21 µM. In the data set on hepatocytes LO2, half-maximal inhibition (IC50) required 114 ± 4.11 µM.

In turn, `CCOC(=O)CC(NC(=O)c1cc(O)c2c(c1)C(=O)c1cccc(O)c1C2=O)C(=O)OCC` (centres unmarked) [Example 4, diethyl(4,5-dihydroxy-9,10-dioxo-9,10-dihydroanthracene-2-carbonyl)aspartate] came in with a melting point of 174.7 to 175.2 °C. Also, in the data set with HCC cells SNU398, half-maximal inhibition (IC50) was put at 27.9 ± 3.45 µM and the “IC50 … (selectivity in words)” value was “much smaller than the IC50 on hepatocytes LO2”. Also, half-maximal inhibition with hepatocytes LO2 (IC50) required 117 µM.

Molecule `CCCNC(=O)c1cc(O)c2c(c1)C(=O)c1cccc(O)c1C2=O` [Example 5, 4,5-dihydroxy-9,10-dioxo-n-propyl-9,10-dihydroanthracene-2-carboxamide] gave a melting point of 264.1 to 265 °C. In the data set with HCC cells SNU398, this molecule showed an IC50 of 116 ± 5.25 µM. Also, it took 228 ± 10.8 µM to reach half-maximal inhibition with hepatocytes LO2 (IC50).

`CCCCNC(=O)c1cc(O)c2c(c1)C(=O)c1cccc(O)c1C2=O` [Example 6, N-butyl-4,5-dihydroxy-9,10-dioxy-9,10-dihydroanthracene-2-carboxamide] came in with a melting point of 215.2 to 215.9 °C. In the data set on HCC cells SNU398, the IC50 was 5.85 ± 0.49 µM and the “IC50 … (selectivity in words)” value is “much smaller than the IC50 on hepatocytes LO2”. Besides, inhibition in the data set with hepatocytes LO2 was half-maximal at 113 ± 8.56 µM (IC50).

Molecule `CCOC(=O)N1CCN(C(=O)c2cc(O)c3c(c2)C(=O)c2cccc(O)c2C3=O)CC1` [Example 7] gave a melting point of 222.2 to 222.8 °C. Moreover, half-maximal inhibition in the data set with HCC cells SNU398 (IC50) required 19 ± 1.96 µM. Besides, in the data set on hepatocytes LO2, the IC50 was determined as 26.3 ± 15.8 µM.
